Assay results reported in BindingDB's records for patent US20230416268 (Enanta Pharmaceuticals, 2023).

Biological target: T1, 17-beta-hydroxysteroid dehydrogenase 13 (Homo sapiens, UniProt Q7Z5P4)
T1 sequence (Q7Z5P4 whole entry): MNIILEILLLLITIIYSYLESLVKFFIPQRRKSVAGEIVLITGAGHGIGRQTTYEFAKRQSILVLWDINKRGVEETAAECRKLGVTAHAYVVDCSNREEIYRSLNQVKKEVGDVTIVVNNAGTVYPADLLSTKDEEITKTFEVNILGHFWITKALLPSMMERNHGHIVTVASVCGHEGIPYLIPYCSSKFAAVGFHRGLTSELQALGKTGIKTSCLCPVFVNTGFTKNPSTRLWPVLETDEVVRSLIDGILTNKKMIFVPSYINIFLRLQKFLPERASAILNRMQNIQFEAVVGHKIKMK
Assay: 17β-HSD13 Rapid-Fire Mass Spectrometry Assay
Excerpt: Recombinant human 17β-HSD13 was expressed and purified from sf9 cells at Charles River Labs (Saffron Walden, UK). Leukotriene B4 (Catalog #71160-24-2) and 12-oxoleukotriene B4 (Catalog #20140) were purchased from Cayman Chemicals (Ann Arbor, MI). NAD+ (Catalog #N8285), BSA (Catalog #A7030), DMSO (Catalog #D2650), and Tween-20 (Catalog #11332465001) were purchased from Sigma (St. Louis, MO). Formic acid (Catalog #28905) was from ThermoFisher Scientific and 384 deep well PP microplates (Catalog #784261) were from Greiner Bio-One. In a typical IC50 assay performed in a 384w PP microplate, test compounds (0-100 μM) were incubated with HSD17B13 (80 nM), LTB4 (10 μM), and NAD+ (0.5 mM) in 10 μL assay buffer (20 mM Tris (pH 7.5), BSA (0.005%), and Tween-20 (0.01%)) at RT for 3 h. The assays were quenched by adding 20 μL of 0.15% aqueous formic acid and the plates were frozen at −80° C. RF/MS analysis was performed at PureHoney Technologies (Billerica, MA) on a RapidFire RF300 system (Agilent Technologies, Inc.) coupled to an API 4000 triple quadrupole mass spectrometer (Sciex) equipped with Agilent RapidFire cartridge type A (C4). […] Leukotriene B4 (335.3) and 12-oxoLeukotriene B4 (333.3) SRM transitions were optimized with Discovery Quant software and extracted ion counts for these analytes were determined.

IC50: < 100 nM
Compound: COc1ccc(-c2nc3sc4c(O)cccc4c3c(=O)n2CCNCc2cnc[nH]2)c(C2CC2)c1 [US20230416268, Example 31]
